Data set [1] can be described thus: Octanol-water distribution coefficient, log D of the compound at pH 7.4 at 100 ug/mL. Format: physicochemical.
A short description of data set [2]: Octanol-water distribution coefficient, log D of the compound at pH 6.5. The class given is physicochemical.
For data set [3], the system named is Plasma. In words: Stability in Sprague-Dawley rat plasma at 1 mM incubated for 24 hrs at 37 degC by MALDI-TOF mass spectrometry. Format: ADME, cell-free. Conditions: 1000 µM.
Data set [4] deals with Plasma. The data set can be described thus: Stability in Sprague-Dawley rat plasma at 1 mM incubated for 24 hrs at 37 degC by LC-QTOF mass spectrometry. The class given is ADME, cell-free. Conditions: 1000 µM.

Structures are written as SMILES.

A word on the logD: it is the decadic logarithm of the distribution of all forms, ionised or not, between an organic phase and buffer at a given pH.

`CC(=O)N[C@H]1[C@H]([C@H](O)[C@H](O)CO)OC(C(=O)O)=C[C@@H]1N=C(N)N` [ZANAMIVIR]: in data set [1] (read-out: logD), the pH-dependent lipophilicity (logD) is -1.

For `O=C(O)c1ccc2ccccc2c1O` [CARBOXYNAPHTHOL], the results for the logD in data set [1] (read-out: logD) and in data set [2] were 0.16 and 0.25, respectively. For the compound `CCOC(=O)C1=C[C@@H](OC(CC)CC)[C@H](NC(C)=O)[C@@H](NC(=N)N)C1`, the values for the logD in data set [1] (read-out: logD) and in data set [2] were 0.31 and -1.17, respectively. In the case of `CCC(CC)O[C@@H]1C=C(C(=O)O)C[C@H](NC(=N)N)[C@H]1NC(C)=O`, in data set [1], the logD is listed as -0.13. For `CCC(CC)O[C@@H]1C=C(C(=O)O)C[C@H](N)[C@H]1NC(C)=O` [OSELTAMIVIR CARBOXYLATE], the logD in data set [1] (read-out: logD) is -1.5. As to `CC(=O)N[C@H]1[C@H]([C@H](O)[C@H](O)CO)OC(C(=O)OCCCOC(=O)c2ccc3ccccc3c2O)=C[C@@H]1NC(=N)N`, the logD in data set [1] (read-out: logD) was 0.75. Besides, the Stability result with Plasma [3] and with Plasma [4] was “Stable” each time. In data set [2], `CCCCCCCOC(=O)C1=C[C@H](NC(=N)N)[C@@H](NC(C)=O)[C@H]([C@H](O)[C@H](O)CO)O1` [ZANAMIVIR HEPTYL ESTER] displayed a logD of -1.31. Regarding `CCC(CC)O[C@@H]1C=C(C(=O)OCCCOC(=O)c2ccc3ccccc3c2O)C[C@H](NC(=N)N)[C@H]1NC(C)=O`, the logD in data set [1] (read-out: logD) was found to be 0.82. The same measure, in the same setting: next, `CCOC(=O)C1=C[C@H](NC(=N)N)[C@@H](NC(C)=O)[C@H]([C@H](O)[C@H](O)CO)O1`: -0.28.
